The source of these data is US20250154198A1, “PEPTIDE INHIBITORS OF INTERLEUKIN-23 RECEPTOR” (Zealand Pharma A/S, priority 2021, published 2025).

Series [1] addresses T1, human IL-23R (Homo sapiens, UniProt Q5VWK5).
T1 construct: UniProtKB—Q5VWK5, amino acids 22-629; secretion signal of the plasmid (Promega N1371); expressed in transfected cells
T1 sequence (Q5VWK5 22-629): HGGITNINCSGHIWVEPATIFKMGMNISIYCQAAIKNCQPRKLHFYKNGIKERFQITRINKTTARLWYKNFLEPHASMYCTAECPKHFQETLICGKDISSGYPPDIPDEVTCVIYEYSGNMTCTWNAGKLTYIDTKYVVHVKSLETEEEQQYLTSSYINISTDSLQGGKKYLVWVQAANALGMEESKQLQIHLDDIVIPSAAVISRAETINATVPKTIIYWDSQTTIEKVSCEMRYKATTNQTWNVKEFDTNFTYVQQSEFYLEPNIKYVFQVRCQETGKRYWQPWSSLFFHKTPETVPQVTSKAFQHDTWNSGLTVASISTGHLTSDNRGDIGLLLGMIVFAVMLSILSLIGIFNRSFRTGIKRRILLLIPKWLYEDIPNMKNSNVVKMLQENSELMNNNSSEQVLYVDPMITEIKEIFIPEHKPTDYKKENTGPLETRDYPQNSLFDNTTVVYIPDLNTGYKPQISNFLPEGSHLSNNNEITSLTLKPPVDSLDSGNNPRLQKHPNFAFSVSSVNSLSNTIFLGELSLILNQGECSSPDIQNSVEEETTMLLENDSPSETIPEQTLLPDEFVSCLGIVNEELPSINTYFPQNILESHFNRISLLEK
Put plainly: Binding assay (NanoBRET displacement of fluorophore-labelled reference compound) for estimating binding affinity to human IL-23R. The note with it: Table 3-1; read-out: Ki hIL-23R.

Series [2] in a line: Peptide stability in simulated intestinal fluid (SIF). The note with it: pig, simulated intestinal fluid (SIF) with porcine pancreatin, Table 3-2, porcine pancreatin, pH 6.8, 37° C., 10 μM; for remaining at 1 h, 10 μM: read-out: SIF (% remaining 1 h); for remaining at 4 h, 10 μM: read-out: SIF (% remaining 4 h). The format is in vitro ADME. As to the method: Determination of Peptide Stability in Simulated Gastric Fluid (SGF) and Simulated Intestinal Fluid (SIF)
SGF was prepared by dissolving sodium chloride (0.2 g) in 50 mL of water. A volume of 0.7 mL of 10 M HCl was added to adjust the pH of the solution to 1.2 and the volume made up to 100 mL with water. […] SIF was prepared by dissolving monobasic potassium phosphate (0.68 g) in 50 mL of water and adjusting the pH to 6.8 with 1 M NaOH. The volume was subsequently made up to 100 mL with water. 200 mg porcine pancreatin (P1625, Sigma Aldrich) was gently dissolved into 20 mL preheated (37° C.) solution (10 g/L) immediately prior to the incubation.
The incubation was performed at 37° C. with gentle shaking. […] After the last timepoint, the sampling plate was mixed for 10 min on a shaking table and centrifuged 10 min at 2200 g. 70 μL resulting supernatant was diluted with 150 μL water, mixed and centrifugated before analysis by liquid chromatography high resolution mass spectrometry. […] Percent remaining at each timepoint was calculated relative to timepoint zero based on absolute peak areas.

*1 amine or outer side, *2 acyl side, *3 side chain or, on linkers, in order; H or OH if unused. Where a SMILES comes first, the peptide text is derived from it. Bridges are numbered along the chain shown (N, C = ends). [ ]: non-standard residue; d: D form. NHCH2(1,3-C6H4)CH2CO = O=C(Cc1cccc(CN[*:1])c1)[*:2]; dTrp(6-F) = N[C@H](Cc1c[nH]c2cc(F)ccc12)C(=O)O; αMeAla(3-pyridyl) = C[C@](N)(Cc1cccnc1)C(=O)O; Trp(1-Me) = Cn1cc(C[C@H](N)C(=O)O)c2ccccc21; Phe(3,4-Me2) = Cc1ccc(C[C@H](N)C(=O)O)cc1C; Bip = N[C@@H](Cc1ccc(-c2ccccc2)cc1)C(=O)O; Phe(4-Me) = Cc1ccc(C[C@H](N)C(=O)O)cc1; dPhe(4-F) = N[C@H](Cc1ccc(F)cc1)C(=O)O; 2Nal = N[C@@H](Cc1ccc2ccccc2c1)C(=O)O; AEF = NCCOc1ccc(C[C@H](N)C(=O)O)cc1; X1 = O=C(Cc1ccc(CN[*:1])cc1)[*:2]; αMeL = CC(C)C[C@](C)(N)C(=O)O; CH2COCH2 = O=C(C[*:1])C[*:2]; Phg = N[C@H](C(=O)O)c1ccccc1; αMeV = CC(C)[C@](C)(N)C(=O)O; Dab = NCC[C@H](N)C(=O)O

Usually Ki stands for a dissociation constant, usually derived from enzyme kinetics or from competition with a known ligand. For the compound `CC(C)C[C@]1(C)NC(=O)[C@H](Cc2ccc3ccccc3c2)NC(=O)[C@H](Cc2ccc(OCCN)cc2)NC(=O)[C@@H]2CCC(=O)NCC[C@H](NC(=O)[C@H](CO)NC(=O)Cc3ccc(cc3)CNC(=O)CC[C@@H](C(=O)N[C@@H](CCN)C(=O)N[C@@H](Cc3cccnc3)C(N)=O)NC1=O)C(=O)N[C@@H](Cc1c[nH]c3ccccc13)C(=O)N[C@@H](CCC(N)=O)C(=O)N2` (relative stereo) [Compound 123, [4-Aminomethyl-phenylacetyl](1c)*S[Dab](2c)WQE(2c)[Y(2-aminoethoxy)][2-Nal][2-Me-Leu]E(1c)[Dab][3-(3-Pyridyl)-Ala]-[NH2]], the Ki in series [1] was 0.00783 nM. Also, in series [2], the fraction remaining at 1 h, 10 μM is 46% and the share remaining at 4 h, 10 μM is 4%.

Take `CC(=O)N[C@H]1CCCCNC(=O)CC[C@@H](C(=O)N[C@@H](CCCNC(=N)N)C(N)=O)NC(=O)[C@@H](CC(C)C)NC(=O)[C@H](Cc2ccc3ccccc3c2)NC(=O)[C@H](Cc2ccc(OCCN)cc2)NC(=O)[C@@H]2CSCC(=O)CSC[C@H](NC(=O)[C@H](CO)NC1=O)C(=O)N[C@@H](Cc1c[nH]c3ccccc13)C(=O)N[C@@H](CCC(N)=O)C(=O)N2` [Compound 48, [Ac]-K(1c)SC(2a)WQC(2a)[Y(2-aminoethoxy)][2-Nal][{d}L]E(1c)R-[NH2]] (Ac-KSCWQC[AEF][2Nal][dL]ER-NH2; lactam 1-10; linker 3-6 via CH2COCH2): the Ki in series [1] is 17 nM. For the same compound, in series [2], the fraction remaining at 1 h, 10 μM is 0% and the amount remaining at 4 h, 10 μM was 0%.

Turning to `CC(=O)N[C@H]1CCCCNC(=O)CC[C@@H](C(=O)N[C@H](CCCNC(=N)N)C(N)=O)NC(=O)[C@](C)(CC(C)C)NC(=O)[C@H](Cc2ccc3ccccc3c2)NC(=O)[C@H](Cc2ccc(OCCN)cc2)NC(=O)[C@@H]2CSCC(=O)CSC[C@H](NC(=O)[C@H]([C@@H](C)O)NC1=O)C(=O)N[C@@H](Cc1c[nH]c3ccccc13)C(=O)N[C@@H](CCC(N)=O)C(=O)N2` [Compound 85, [Ac]-K(1c)TC(2a)WQC(2a)[Y(2-aminoethoxy)][2-Nal][2-Me-Leu]E(1c)[{d}R]-[NH2]] (Ac-KTCWQC[AEF][2Nal][αMeL]E[dR]-NH2; lactam 1-10; linker 3-6 via CH2COCH2), the Ki in series [1] was 0.321 nM. Further, in series [2], the share remaining at 4 h, 10 μM was 74%.

With `CC(C)C[C@]1(C)NC(=O)[C@H](Cc2ccc3ccccc3c2)NC(=O)[C@H](Cc2ccc(OCCN)cc2)NC(=O)[C@@H]2CSCC(=O)CSC[C@H](NC(=O)[C@H](CO)NC(=O)Cc3cccc(c3)CNC(=O)CC[C@@H](C(=O)N[C@H](CCCNC(=N)N)C(N)=O)NC1=O)C(=O)N[C@@H](Cc1c[nH]c3ccccc13)C(=O)N[C@@H](CCC(N)=O)C(=O)N2` [Compound 92, [3-Aminomethyl-phenylacetyl](1c)*SC(2a)WQC(2a)[Y(2-aminoethoxy)][2-Nal][2-Me-Leu]E(1c)[{d}R]-[NH2]] ([NHCH2(1,3-C6H4)CH2CO]SCWQC[AEF][2Nal][αMeL]E[dR]-NH2; linker 3-6 via CH2COCH2; lactam N-10), in series [2], the share remaining at 4 h, 10 μM was 102%.

On to `CC[C@H](C)[C@@H]1NC(=O)Cc2ccc(cc2)CNC(=O)CC[C@@H](C(=O)N[C@@H](CCN)C(=O)N[C@@](C)(Cc2cccnc2)C(N)=O)NC(=O)[C@](C)(C(C)C)NC(=O)[C@H](Cc2ccc(C)c(C)c2)NC(=O)[C@H](Cc2ccc(OC)cc2)NC(=O)[C@@H]2CCNC(=O)CC[C@H](NC1=O)C(=O)N[C@@H](Cc1c[nH]c3ccccc13)C(=O)N[C@@H](CCC(N)=O)C(=O)N2` [Compound 166, [4-Aminomethyl-phenylacetyl](1c)*IE(2c)WQ[Dab](2c)[Y(Me)][F(3,4-Me)][2-Me-Val]E(1c)[Dab][2-Me-3-(3-Pyridyl)-Ala]-[NH2]] ([X1]IEWQ[Dab]Y(Me)[Phe(3,4-Me2)][αMeV]E[Dab][αMeAla(3-pyridyl)]-NH2; lactam 3-6, N-10), for which the share remaining at 4 h, 10 μM in series [2] is 86%.

On to `CC[C@H](C)[C@@H]1NC(=O)Cc2ccc(cc2)CNC(=O)CC[C@@H](C(=O)N[C@@H](CCN)C(=O)N[C@@](C)(Cc2cccnc2)C(N)=O)NC(=O)[C@](C)(C(C)C)NC(=O)[C@H](Cc2ccc(C)c(C)c2)NC(=O)[C@H](Cc2ccc(-c3ccccc3)cc2)NC(=O)[C@@H]2CCNC(=O)CC[C@H](NC1=O)C(=O)N[C@@H](Cc1c[nH]c3ccccc13)C(=O)N[C@@H](CCC(N)=O)C(=O)N2` [Compound 168, [4-Aminomethyl-phenylacetyl](1c)*IE(2c)WQ[Dab](2c)[Bip][F(3,4-Me)][2-Me-Val]E(1c)[Dab][2-Me-3-(3-Pyridyl)-Ala]-[NH2]] ([X1]IEWQ[Dab][Bip][Phe(3,4-Me2)][αMeV]E[Dab][αMeAla(3-pyridyl)]-NH2; lactam 3-6, N-10), for which, in series [2], the share remaining at 4 h, 10 μM is 104%.

`CC[C@H](C)[C@@H]1NC(=O)Cc2ccc(cc2)CNC(=O)CC[C@@H](C(=O)N[C@@H](CCN)C(=O)N[C@@](C)(Cc2cccnc2)C(N)=O)NC(=O)[C@](C)(C(C)C)NC(=O)[C@H](Cc2ccc(C)c(C)c2)NC(=O)[C@@H](Cc2ccc(F)cc2)NC(=O)[C@@H]2CCNC(=O)CC[C@H](NC1=O)C(=O)N[C@@H](Cc1c[nH]c3ccccc13)C(=O)N[C@@H](CCC(N)=O)C(=O)N2` [Compound 170, [4-Aminomethyl-phenylacetyl](1c)*IE(2c)WQ[Dab](2c)[{d}F(4-F)][F(3,4-Me)][2-Me-Val]E(1c)[Dab][2-Me-3-(3-Pyridyl)-Ala]-[NH2]] ([X1]IEWQ[Dab][dPhe(4-F)][Phe(3,4-Me2)][αMeV]E[Dab][αMeAla(3-pyridyl)]-NH2; lactam 3-6, N-10): in series [2], the share remaining at 4 h, 10 μM is 62%.

`CC[C@H](C)[C@@H]1NC(=O)Cc2ccc(cc2)CNC(=O)CC[C@@H](C(=O)N[C@@H](CCN)C(=O)N[C@@](C)(Cc2cccnc2)C(N)=O)NC(=O)[C@](C)(C(C)C)NC(=O)[C@H](Cc2ccc(C)c(C)c2)NC(=O)[C@H](c2ccccc2)NC(=O)[C@@H]2CCNC(=O)CC[C@H](NC1=O)C(=O)N[C@@H](Cc1c[nH]c3ccccc13)C(=O)N[C@@H](CCC(N)=O)C(=O)N2` [Compound 174, [4-Aminomethyl-phenylacetyl](1c)*IE(2c)WQ[Dab](2c)[Phg][F(3,4-Me)][2-Me-Val]E(1c)[Dab][2-Me-3-(3-Pyridyl)-Ala]-[NH2]] ([X1]IEWQ[Dab][Phg][Phe(3,4-Me2)][αMeV]E[Dab][αMeAla(3-pyridyl)]-NH2; lactam 3-6, N-10): the amount remaining at 4 h, 10 μM in series [2] was 86%.

For `CC[C@H](C)[C@@H]1NC(=O)Cc2ccc(cc2)CNC(=O)CC[C@@H](C(=O)N[C@@H](CCN)C(=O)N[C@@](C)(Cc2cccnc2)C(N)=O)NC(=O)[C@](C)(C(C)C)NC(=O)[C@H](Cc2cn(C)c3ccccc23)NC(=O)[C@H](Cc2ccc(C)cc2)NC(=O)[C@@H]2CCNC(=O)CC[C@H](NC1=O)C(=O)N[C@@H](Cc1c[nH]c3ccccc13)C(=O)N[C@@H](CCC(N)=O)C(=O)N2` [Compound 175, [4-Aminomethyl-phenylacetyl](1c)*IE(2c)WQ[Dab](2c)[F(4-Me)][1-Me-Trp][2-Me-Val]E(1c)[Dab][2-Me-3-(3-Pyridyl)-Ala]-[NH2]] ([X1]IEWQ[Dab][Phe(4-Me)][Trp(1-Me)][αMeV]E[Dab][αMeAla(3-pyridyl)]-NH2; lactam 3-6, N-10), the share remaining at 4 h, 10 μM in series [2] was 93%.

In the case of `CC[C@H](C)[C@@H]1NC(=O)Cc2ccc(cc2)CNC(=O)CC[C@@H](C(=O)N[C@@H](CCN)C(=O)N[C@@](C)(Cc2cccnc2)C(N)=O)NC(=O)[C@](C)(C(C)C)NC(=O)[C@@H](Cc2c[nH]c3cc(F)ccc23)NC(=O)[C@H](Cc2ccc(C)cc2)NC(=O)[C@@H]2CCNC(=O)CC[C@H](NC1=O)C(=O)N[C@@H](Cc1c[nH]c3ccccc13)C(=O)N[C@@H](CCC(N)=O)C(=O)N2` [Compound 177, [4-Aminomethyl-phenylacetyl](1c)*IE(2c)WQ[Dab](2c)[F(4-Me)][{d}6-F-Trp][2-Me-Val]E(1c)[Dab][2-Me-3-(3-Pyridyl)-Ala]-[NH2]] ([X1]IEWQ[Dab][Phe(4-Me)][dTrp(6-F)][αMeV]E[Dab][αMeAla(3-pyridyl)]-NH2; lactam 3-6, N-10), in series [2], the share remaining at 4 h, 10 μM is 63%.
